Experimental data as given in patent publication US20070111216A1 (priority 2004, published 2007).

Tests used:
Format in all cases: biochemical
[1] = biological target: T1, E. coli RNA Polymerase Core Enzyme (Escherichia coli, UniProt P0A8T7+P0A8V2); experiment: Rolling circle transcription on circular 45mer ssDNA monitored in real time (SYBR Gold) and by gel electrophoresis; conditions: 20 μg/ml α-amanitin, 10 min preincubation at 37° C., 0.5 mM each NTP, about 1.5 hours (FIG. 4)
T1 construct: purchased EPICENTRE
Protocol: A single-stranded circularized 45mer DNA molecule having the same sequence as the circular 45mer used in Example 1 (Sequence I.D. No. 1) was obtained.
A reaction mixture was prepared containing 0.5 units of E. coli RNA Polymerase Core Enzyme, and a reaction buffer. The reaction mixture was incubated in the presence of 1 μM rifampicin, 20 U TAGETIN (Epicentre Biotechnologies), or 20 μg/ml α-amanitin for 10 min at 37° C. Subsequently, 0.8 pmole of the circularized 45mer DNA oligomer were added to the reaction mixture followed by incubation for 5 min at 37° C. Then SYBR Gold (Molecular Probes), which had been diluted 1:20,000, was added. Subsequently, ATP, CTP, GTP and UTP were added such that the concentration of each NTP was 0.5 mM in the final reaction mixture. Fluorescence was measured for about 1.5 hours in an iCycler iQ real-time PCR detection system (Bio-Rad Laboratories) using 490 nm excitation and 530 nm emission wavelengths. Afterwards, the reaction products were analyzed by gel electrophoresis.

[2] = biological target: T2, E. coli RNA polymerase Holoenzyme (Escherichia coli, UniProt P0A8T7+P0A8V2); experiment: Rolling circle transcription on circular 38mer ssDNA, products visualized by agarose gel electrophoresis; conditions: 37° C. for 2 hours, 0.5 mM each NTP, concentration of inhibitor not printed (FIG. 2)
T2 construct: purchased EPICENTRE
T2 sequence (P0A8V2 whole entry): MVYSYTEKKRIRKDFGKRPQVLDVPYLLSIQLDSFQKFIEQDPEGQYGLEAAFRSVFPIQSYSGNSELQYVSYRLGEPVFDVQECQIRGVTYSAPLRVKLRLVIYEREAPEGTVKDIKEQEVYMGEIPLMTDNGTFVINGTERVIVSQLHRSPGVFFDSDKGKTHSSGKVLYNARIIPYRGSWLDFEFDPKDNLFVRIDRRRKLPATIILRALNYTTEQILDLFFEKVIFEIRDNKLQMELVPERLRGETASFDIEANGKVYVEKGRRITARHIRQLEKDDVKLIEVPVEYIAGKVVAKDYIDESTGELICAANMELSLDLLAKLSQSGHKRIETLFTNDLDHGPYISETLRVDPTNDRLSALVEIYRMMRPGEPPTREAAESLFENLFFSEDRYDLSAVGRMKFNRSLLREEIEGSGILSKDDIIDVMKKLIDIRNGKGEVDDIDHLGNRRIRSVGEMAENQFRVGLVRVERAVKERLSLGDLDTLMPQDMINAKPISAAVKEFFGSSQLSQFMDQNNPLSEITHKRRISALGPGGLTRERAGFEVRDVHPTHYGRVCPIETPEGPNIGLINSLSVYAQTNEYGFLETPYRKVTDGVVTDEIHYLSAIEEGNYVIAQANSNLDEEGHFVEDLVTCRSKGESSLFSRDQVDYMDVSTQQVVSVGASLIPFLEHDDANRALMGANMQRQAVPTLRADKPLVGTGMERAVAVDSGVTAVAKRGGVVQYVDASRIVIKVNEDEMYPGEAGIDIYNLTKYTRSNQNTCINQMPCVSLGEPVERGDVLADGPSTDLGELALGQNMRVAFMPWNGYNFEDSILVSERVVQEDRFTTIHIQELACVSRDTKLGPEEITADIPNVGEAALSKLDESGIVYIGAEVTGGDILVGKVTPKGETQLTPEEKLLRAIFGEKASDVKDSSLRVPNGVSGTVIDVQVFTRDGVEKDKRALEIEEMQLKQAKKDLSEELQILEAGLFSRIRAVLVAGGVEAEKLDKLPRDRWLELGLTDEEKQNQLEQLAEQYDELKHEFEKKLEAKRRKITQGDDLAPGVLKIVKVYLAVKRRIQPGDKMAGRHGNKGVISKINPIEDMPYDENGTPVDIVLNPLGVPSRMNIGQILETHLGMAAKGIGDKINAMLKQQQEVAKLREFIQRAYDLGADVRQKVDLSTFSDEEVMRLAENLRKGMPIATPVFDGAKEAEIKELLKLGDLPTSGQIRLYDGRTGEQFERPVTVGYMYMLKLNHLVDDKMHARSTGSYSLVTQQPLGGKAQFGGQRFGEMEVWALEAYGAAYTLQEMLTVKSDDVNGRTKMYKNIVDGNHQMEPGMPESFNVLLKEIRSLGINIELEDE
T2 sequence (P0A8T7 whole entry): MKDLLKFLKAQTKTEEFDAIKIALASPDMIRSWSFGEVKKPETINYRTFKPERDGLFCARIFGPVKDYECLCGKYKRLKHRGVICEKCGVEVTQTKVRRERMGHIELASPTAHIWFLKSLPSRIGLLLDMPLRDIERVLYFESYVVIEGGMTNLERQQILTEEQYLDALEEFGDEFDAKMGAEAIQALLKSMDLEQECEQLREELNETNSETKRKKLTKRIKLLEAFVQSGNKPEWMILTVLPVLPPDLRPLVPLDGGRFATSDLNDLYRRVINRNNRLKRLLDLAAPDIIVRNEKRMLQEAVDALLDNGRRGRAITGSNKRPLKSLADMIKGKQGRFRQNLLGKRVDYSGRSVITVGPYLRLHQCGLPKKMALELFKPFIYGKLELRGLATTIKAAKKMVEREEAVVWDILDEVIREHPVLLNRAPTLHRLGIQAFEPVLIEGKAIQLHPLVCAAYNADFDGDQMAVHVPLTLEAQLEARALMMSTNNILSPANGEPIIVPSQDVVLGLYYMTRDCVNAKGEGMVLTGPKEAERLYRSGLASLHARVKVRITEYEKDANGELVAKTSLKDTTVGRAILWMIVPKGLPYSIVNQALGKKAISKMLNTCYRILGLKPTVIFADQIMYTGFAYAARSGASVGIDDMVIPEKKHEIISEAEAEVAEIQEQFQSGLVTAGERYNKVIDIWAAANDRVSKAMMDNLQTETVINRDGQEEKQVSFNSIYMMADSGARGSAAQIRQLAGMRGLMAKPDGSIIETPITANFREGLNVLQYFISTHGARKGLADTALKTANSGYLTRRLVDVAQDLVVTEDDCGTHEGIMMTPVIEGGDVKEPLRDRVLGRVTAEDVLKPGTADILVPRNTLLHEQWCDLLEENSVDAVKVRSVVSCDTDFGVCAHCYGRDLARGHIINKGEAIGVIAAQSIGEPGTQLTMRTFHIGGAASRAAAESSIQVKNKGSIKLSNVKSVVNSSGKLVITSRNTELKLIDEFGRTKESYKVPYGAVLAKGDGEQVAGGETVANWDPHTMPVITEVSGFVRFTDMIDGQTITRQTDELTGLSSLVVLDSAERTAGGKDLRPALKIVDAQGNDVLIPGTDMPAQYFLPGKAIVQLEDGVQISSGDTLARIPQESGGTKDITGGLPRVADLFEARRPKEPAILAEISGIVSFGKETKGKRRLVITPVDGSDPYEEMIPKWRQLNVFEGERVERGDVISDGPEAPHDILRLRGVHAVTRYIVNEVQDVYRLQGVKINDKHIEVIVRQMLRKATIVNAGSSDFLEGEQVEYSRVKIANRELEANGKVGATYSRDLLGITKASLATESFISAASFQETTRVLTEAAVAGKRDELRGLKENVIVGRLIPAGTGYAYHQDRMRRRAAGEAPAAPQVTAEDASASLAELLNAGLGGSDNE
T2 sequence (P0A7Z4 whole entry partner): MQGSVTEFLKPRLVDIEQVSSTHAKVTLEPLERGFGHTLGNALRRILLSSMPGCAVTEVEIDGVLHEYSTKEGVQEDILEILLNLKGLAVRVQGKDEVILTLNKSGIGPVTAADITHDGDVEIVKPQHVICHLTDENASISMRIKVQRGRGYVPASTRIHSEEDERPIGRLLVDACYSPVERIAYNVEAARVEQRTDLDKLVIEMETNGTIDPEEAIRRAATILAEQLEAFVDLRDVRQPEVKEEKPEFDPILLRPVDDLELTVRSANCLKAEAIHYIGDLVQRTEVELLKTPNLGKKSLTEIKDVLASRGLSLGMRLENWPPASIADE
T2 sequence (P0A800 2-91 partner limits assumed): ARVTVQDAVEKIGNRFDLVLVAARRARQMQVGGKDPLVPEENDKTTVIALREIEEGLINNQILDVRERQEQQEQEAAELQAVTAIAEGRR
T2 sequence (P00579 whole entry partner): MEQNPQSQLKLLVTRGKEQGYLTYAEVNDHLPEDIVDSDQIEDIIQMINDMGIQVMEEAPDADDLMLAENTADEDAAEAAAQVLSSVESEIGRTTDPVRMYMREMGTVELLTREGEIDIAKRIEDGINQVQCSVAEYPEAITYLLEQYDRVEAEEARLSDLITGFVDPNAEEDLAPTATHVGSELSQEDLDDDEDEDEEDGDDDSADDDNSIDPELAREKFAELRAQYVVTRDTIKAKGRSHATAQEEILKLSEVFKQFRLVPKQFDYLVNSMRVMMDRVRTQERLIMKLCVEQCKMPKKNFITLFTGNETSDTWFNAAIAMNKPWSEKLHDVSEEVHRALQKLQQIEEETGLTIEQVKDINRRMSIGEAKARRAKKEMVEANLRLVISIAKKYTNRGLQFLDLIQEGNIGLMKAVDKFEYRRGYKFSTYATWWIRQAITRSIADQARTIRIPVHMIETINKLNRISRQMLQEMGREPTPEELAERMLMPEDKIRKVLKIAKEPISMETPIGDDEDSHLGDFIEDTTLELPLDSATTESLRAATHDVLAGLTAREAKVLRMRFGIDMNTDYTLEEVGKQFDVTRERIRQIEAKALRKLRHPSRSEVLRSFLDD
Protocol: (§1) A single-stranded circularized 38mer DNA molecule having the same sequence as the circular 38mer used in Example 2 (Sequence I.D. No. 2) was obtained.
(§2) A reaction mixture was prepared comprising 5 pmoles of the circularized 38mer DNA molecule, 1 unit of E. coli RNA Polymerase Holoenzyme (EPICENTRE) or of soy germ RNA polymerase II, 0.5 mM of each NTP and a reaction buffer. The reaction mixture was incubated at 37° C. for 2 hours in the presence or absence of rifampicin or α-amanitin. The reaction products were visualized by agarose gel electrophoresis.

[3] = system: soy germ RNA polymerase II; experiment: as above; conditions: 37° C. for 2 hours, 0.5 mM each NTP, concentration of inhibitor not printed (FIG. 2)
Protocol: as §1, §2

In the case of `CC[C@H](C)[C@@H]1NC(=O)CNC(=O)[C@@H]2Cc3c([nH]c4cc(O)ccc34)[S+]([O-])C[C@@H](NC(=O)CNC1=O)C(=O)N[C@@H](CC(N)=O)C(=O)N1C[C@H](O)C[C@H]1C(=O)N[C@@H]([C@@H](C)[C@@H](O)CO)C(=O)N2` (stereo in doubt) [α-amanitin], the “RNA synthesis in the presence of inhibitor” value [1] is reported as “RNA was synthesized”, the “Inhibition of RNA polymerase activity” value [2] is reported as “no inhibition” and the “Inhibition of RNA polymerase activity” value [3] is reported as “Inhibitory effects”.
